Laboratory results taken from PMC11374660, “The novel family of Warbicin® compounds inhibits glucose uptake both in yeast and human cells and restrains cancer cell proliferation” (Frontiers in Oncology, 2024).

Tests used:
[1] = Solubility of compound stocks; format: physicochemical; details: 100% DMSO
Method: WBC-A and the complete structural analog library ( Supplementary Table 2 ) were purchased from different vendors, i.e. Enamine (n = 185), Life Chemicals (n = 10), LabNetwork (n = 4) and Uorsy (n = 4). WBC compounds in general are very insoluble in aqueous solutions, challenging their solubilization. Throughout this work, WBC compounds were always stock aliquoted at 50 mM concentration in 100% DMSO. In many cases, gentle sonication and heating up to 37°C was necessary to completely solubilize the compound stocks. Whereas WBC-A, -15C, -4C and -11C could be dissolved at 50 mM, some structural analogs remained in smooth or rough suspension, regardless of the concentration. Even though it is recommended to aliquot compound stocks, no significant decrease in compound strength by repeated freeze and thaw cycles in DMSO was observed.

yeast tps1Δ strain = assay: Growth (rescue) of the yeast tps1Δ strain on galactose with or without glucose; format: cell-based, S. cerevisiae; details: 100 µM, 2.5 mM glucose
Method: Growth curves were made by measuring OD595 in a 96-well plate using the Multiskan™ FC Microplate Photometer (Thermo Fisher Scientific). Typically, for tps1Δ rescue experiments, cells were (pre)grown in Complete Synthetic medium containing 110 mM galactose. Compounds were always added 10 min prior to glucose addition to ensure maximal interaction between the cells and compounds. Cells originating from the preculture were harvested, washed in medium without sugar, after which they were resuspended to an OD of 0.1 in 200 µL of the appropriate medium. At least three technical replicates were included per condition. OD595 was measured at 30°C every 30 min with a 10-min shaking interval.

[2] = test system: 2-deoxyglucose uptake in A549 lung adenocarcinoma cells; assay: 2-deoxyglucose uptake in A549 lung adenocarcinoma cells; format: cell-based, human; details: for Ki: read-out: Ki for 2-deoxyglucose uptake (Dixon plot)
Method: Zero-trans glucose uptake in A549 cells was approximated by measuring the uptake of [1,2-^3H]2-deoxyglucose. For this purpose, A549 cells were pregrown in RPMI medium containing 10 mM glucose in a 24-well plate to a cell density of around 100,000 cells/well. Prior to adding radioactive label, cells were gently washed twice in Krebs-Ringer-HEPES buffer (50 mM HEPES pH 7.4, 137 mM NaCl, 4.7 mM KCl, […], 1.3 mM MgSO4 and 0.1% w/v BSA) at 30°C to remove any residual sugar. RPMI medium without sugar containing the compound intended for treatment, was added to the cells for 15 min at 37°C to allow adequate interaction of the cells with the compound. The uptake measurement was initiated by adding an equal volume of medium containing radiolabeled 2DG. After 3 - 4 min incubation at 37°C, medium was aspirated and cells were gently washed three times with ice-cold Krebs-Ringer-HEPES buffer. Cells were lysed by adding 200 µL of ice-cold 0.1 M NaOH solution and incubating the plate for 10 min at 37°C. Cell lysates were transferred to scintillation vials for subsequent scintillation counting. For blank measurements, cells were incubated with 50 µM Cytochalasin B prior to the uptake measurement.

[3] = test system: A549 lung adenocarcinoma cells; assay: Proliferation of A549 lung adenocarcinoma cells; format: cell-based, human; details: for Selected from primary screen for growth inhibition of A549 cells at 50 µM: RPMI 1 mM glucose; for relative potency in reducing maximal growth rate of A549 cells: 1 mM glucose, 6.25-50 µM; for Selected for having an IC50 ratio (10 mM glucose : 1 mM glucose) of A549 growth higher than WBC-A: ratio of IC50 on 10 mM and 1 mM glucose, compared to WBC-A
Method: (§1) For both adherent A549 and MCF10A H-RAS^V12 cell lines, growth curves were established using the IncuCyte® ZOOM technology. By collecting phase contrast images, the IncuCyte® software provides a calculated confluency percentage from which growth curves can be deducted. The cell number/density was measured by calculating the confluency of phase objects (cells) sticking on the bottom of the well. Cells were seeded at a density of 1000 - 1500 cells/well in a Nunc-Edge™ 96-well plate (Thermo Fisher Scientific) and growth was typically measured over 3 to 5 days. For the measurement of apoptosis induction using the MCF10A H-RAS^V12 cell line, the IncuCyte® Caspase-3/7 green dye was added to the medium in the recommended concentration at the beginning of the growth curve experiment. Apoptosis was detected by taking fluorescent images by excitation at 488 nm followed by IncuCyte® software analysis. Cell growth of the KMS-12-PE multiple myeloma cell line, which grows in suspension, was measured by manual cell counting. Cells were initially seeded at a density of 10^4 cells/well and incubated for 4 days after which the cell number was counted. For all cell lines, the same medium used for pregrowth was also used for the growth curve experiment, albeit with different glucose concentrations depending on the experimental design. With compound administration, the final concentration of DMSO never exceeded 0.1%. Typically, at least four technical repeats were included per condition.

female NMRI-nu mice = assay: In vivo toxicity and tolerability in mice; details: for abnormalities / toxic effects in liver and other organs at autopsy: daily i.p., toxic effects at 20 mg/kg WBC-15C and at 20 and 10 mg/kg WBC-11C, not at lower doses; for loss in body weight: daily intraperitoneal injection, 5, 10 and 20 mg/kg; for AST/ALT ratio vs vehicle: sera after 20 days, 5, 10, 20 mg/kg daily i.p.; for blood glucose level vs vehicle: sera post-mortem after 20 days, 5, 10, 20 mg/kg daily i.p.
Method: Warbicin ® in vivo toxicity and tolerability was examined by subjecting female NMRI-nu mice (12 weeks old) to daily intraperitoneal injection of either WBC-A, WBC-15C, WBC-4C or WBC-11C. Compounds were dosed at either 5 mg/kg, 10 mg/kg or 20 mg/kg over a period of 20 days. Three mice were used per condition. To evaluate toxicity, change in body weight was registered daily. As a humane endpoint, mice that lost more than 20% of their original body weight were prematurely sacrificed. In addition, liver function was examined by measuring the ratio of the AST to ALT enzyme activities (AbCam ab105135, ab105134) in sera samples collected at the end of the experiment. Furthermore, the blood glucose level in mice sera was determined using the colorimetric GOD-PAP method. Due to their considerable hydrophobicity, the compounds were dissolved in a sterilized 1xPBS, 5% DMSO and 5% Tween-80 solution until a homogenous suspension was obtained that could be administered in a reproducible way.

[4] = test system: A549 lung adenocarcinoma cells; assay: Glucose consumption and lactate production over 8 h, A549; format: cell-based, human; details: A549, 25 µM, 1 mM glucose
Method: The influence of WBC compounds on glucose consumption over a longer time period was studied in the A549 adenocarcinoma and KMS-12-PE multiple myeloma cell lines. As such, different parameters needed to be optimized depending on whether cells were adherent or in suspension. As such, A549 cells were incubated at 125,000 cells/well in a 24-well plate in 300 µL RPMI medium for 8 h. For the KMS-12-PE cell line, 100,000 cells/well were incubated in 100 µL RPMI medium in a 96-well plate for 8 h. Medium was collected, spun down and HPLC-analyzed for measuring glucose and lactate levels. Metabolite levels were corrected for cell number, which always varied little over the span of 8 h. For every condition, at least 4 technical repeats were included.

[5] = test system: A549 lung adenocarcinoma cells; parameters: method as in PMID 22689530; details: previously reported; ref [67]; cited from earlier work
[6] = test system: MCF10A breast epithelial cell line transformed with H-RAS^V12; assay: Growth and apoptosis of MCF10A H-RAS^V12 cells (IncuCyte); format: cell-based, human; details: MCF10A H-RAS^V12, 1 mM glucose, 25 µM
Method: as §1

Cc1nc(NCC(=O)Nc2ccccc2Br)c2c(-c3cccs3)csc2n1 [WBC-15C]
concentration at which compound could be dissolved [1]: ≥ 50000 µM | Rescue of the tps1∆ strain on 2.5 mM glucose at 100 µM (yeast tps1Δ strain): No | type of inhibition of 2-deoxyglucose uptake (Lineweaver-Burk) [2]: competitive | Ki [2]: 33.8 µM | Selected from primary screen for growth inhibition of A549 cells at 50 µM [3]: Yes | relative potency in reducing maximal growth rate of A549 cells [3]: least potent | Selected for having an IC50 ratio (10 mM glucose : 1 mM glucose) of A549 growth higher than WBC-A [3]: Higher IC50 ratio and confirmed | abnormalities / toxic effects in liver and other organs at autopsy (female NMRI-nu mice; 20 days): toxic effects were seen in the liver and other organs | adipose tissue at autopsy (female NMRI-nu mice; nude mice, daily i.p., 5, 10 and 20 mg/kg, 20 days, visual inspection vs vehicle): adipose tissue was also observed in between the intestines | loss in body weight (female NMRI-nu mice; nude mice, 20 days): no significant loss in body weight | AST/ALT ratio vs vehicle (female NMRI-nu mice): No significant difference | blood glucose level vs vehicle (female NMRI-nu mice): No significant difference | inhibition of glucose consumption and lactate production [4]: inhibited glucose consumption and lactate production

O=C(Oc1cccc(F)c1OC(=O)c1cccc(O)c1)c1cccc(O)c1 [WZB-117]
inhibition of A549 proliferation [5]: inhibition of its proliferation

Cc1nc(NCC(=O)NCc2ccco2)c2c(-c3ccccc3)csc2n1 [WBC-4C]
concentration at which compound could be dissolved [1]: ≥ 50000 µM | inhibition of proliferation [6]: highest potency | Rescue of the tps1∆ strain on 2.5 mM glucose at 100 µM (yeast tps1Δ strain): No | type of inhibition of 2-deoxyglucose uptake (Lineweaver-Burk) [2]: noncompetitive | K'i for 2-deoxyglucose uptake ([2]; Dixon plot (Ki = K'i) or Cornish-Bowden plot (WBC-11C)): 26.75 µM | Ki [2]: 26.8 µM | Selected from primary screen for growth inhibition of A549 cells at 50 µM [3]: Yes | relative potency in reducing maximal growth rate of A549 cells [3]: intermediate potency | Selected for having an IC50 ratio (10 mM glucose : 1 mM glucose) of A549 growth higher than WBC-A [3]: Higher IC50 ratio and confirmed | abnormalities / toxic effects in liver and other organs at autopsy (female NMRI-nu mice; 20 days): No other abnormalities | loss in body weight (female NMRI-nu mice; nude mice, 20 days): one single mouse treated with 20 mg/kg WBC-4C that was sacrificed at day 19 because of 20% weight loss | AST/ALT ratio vs vehicle (female NMRI-nu mice): No significant difference | blood glucose level vs vehicle (female NMRI-nu mice): No significant difference | inhibition of glucose consumption and lactate production [4]: inhibited glucose consumption and lactate production
